One block for each compound: values may come before it. Calls of active or inactive are those of the source.
Tests used:
[1] = tested on: Streptococcus sp. 'group A'; assay: growth inhibition of control SK(-) GAS strain, dose response, counter-screen for streptokinase expression inhibitor project, luminescence, kanamycin, BacTiterGlo, confirmation (AID 1900); format: functional, organism-based
Streptococcus = assay: Group A Streptococcus viability loss, dose response, counter-screen for streptokinase expression inhibitor project, luminescence, BacTiterGlo (AID 1915); format: functional, organism-based;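 further: potency for reduction of bacterial viability or growth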
[2] = inhibitors of intracellular T. cruzi replication, confirmation, NIH3T3 host cells, beta-gal luminescence (AID 2044); format: functional, cell-based;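 further: intracellular parasites grown in NIH/3T3 mouse fibroblasts as host cells; luminescent beta-galactosidase reporter signal from transgenic T. cruzi replicating inside host cells; inhibitors lower the luminescence signal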
[3] = cytotoxicity toward NIH3T3 fibroblasts, dose response, counter-screen, cell-based, ATP luminescence, mouse fibroblasts (AID 2010); format: functional;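 further: cells exposed to compound for about 90 hours before reading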
[4] = HEp-2 cell cytotoxicity, dose response, cytotoxicity control for RSV inhibitor project, HTS (AID 2410); format: functional; conditions: human respiratory syncytial virus
Cytochrome P450 2C19 = Cytochrome P450 2C19 (Homo sapiens, UniProt P33261); assay: Cytochrome panel assay with activity outcomes. Panel member name: p450-cyp2c19 Compounds with AC50 equal or less than 10 uM are considered active; format: functional
Cytochrome P450 1A2 = target: T1, Cytochrome P450 1A2 (Homo sapiens, UniProt P05177);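 further: PubChem cytochrome P450 panel assay, CYP1A2 panel member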
T1 sequence (P05177 whole entry): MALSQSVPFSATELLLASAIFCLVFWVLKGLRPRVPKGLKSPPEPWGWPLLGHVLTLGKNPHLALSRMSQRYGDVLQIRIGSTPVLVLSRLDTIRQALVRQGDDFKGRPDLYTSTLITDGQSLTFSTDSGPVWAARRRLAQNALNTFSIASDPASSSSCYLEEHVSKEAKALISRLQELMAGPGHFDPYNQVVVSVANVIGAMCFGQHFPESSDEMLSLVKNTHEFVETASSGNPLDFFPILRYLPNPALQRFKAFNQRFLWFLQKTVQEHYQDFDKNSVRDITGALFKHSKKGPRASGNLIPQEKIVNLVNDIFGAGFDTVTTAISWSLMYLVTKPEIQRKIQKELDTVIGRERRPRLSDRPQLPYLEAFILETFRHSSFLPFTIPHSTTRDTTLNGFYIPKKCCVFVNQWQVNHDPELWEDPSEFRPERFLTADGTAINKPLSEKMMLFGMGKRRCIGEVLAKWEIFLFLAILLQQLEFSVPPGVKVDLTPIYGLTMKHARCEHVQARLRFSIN

[5] = target: T2, Heat shock factor protein 1 (Mus musculus, UniProt P38532); assay: inhibition of MG132-induced HSE-luciferase signal, confirmation, cell-based, NIH3T3, luminescence, dose retest (AID 2382); format: functional;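 further: NIH3T3 fibroblasts with HSF1-driven luciferase reporter stressed by proteasome inhibitor MG132; luminescence from HSF1-driven luciferase expression after 8 hours of MG132 stress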
T2 sequence (P38532 whole entry): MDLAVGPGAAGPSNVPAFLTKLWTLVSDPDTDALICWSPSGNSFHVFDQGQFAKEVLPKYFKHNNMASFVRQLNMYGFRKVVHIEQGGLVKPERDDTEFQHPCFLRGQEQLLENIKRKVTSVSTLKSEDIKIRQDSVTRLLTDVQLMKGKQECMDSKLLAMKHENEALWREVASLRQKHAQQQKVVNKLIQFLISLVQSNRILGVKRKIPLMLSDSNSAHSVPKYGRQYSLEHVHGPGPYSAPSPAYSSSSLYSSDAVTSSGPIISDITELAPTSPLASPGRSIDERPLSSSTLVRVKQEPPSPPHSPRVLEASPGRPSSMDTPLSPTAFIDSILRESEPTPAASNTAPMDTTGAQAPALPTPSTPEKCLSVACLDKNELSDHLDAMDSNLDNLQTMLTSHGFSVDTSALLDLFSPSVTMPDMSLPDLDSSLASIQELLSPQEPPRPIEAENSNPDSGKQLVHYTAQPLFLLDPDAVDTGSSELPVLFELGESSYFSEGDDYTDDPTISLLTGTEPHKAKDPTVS

Sequence of Cytochrome P450 2C19 (P33261 whole entry): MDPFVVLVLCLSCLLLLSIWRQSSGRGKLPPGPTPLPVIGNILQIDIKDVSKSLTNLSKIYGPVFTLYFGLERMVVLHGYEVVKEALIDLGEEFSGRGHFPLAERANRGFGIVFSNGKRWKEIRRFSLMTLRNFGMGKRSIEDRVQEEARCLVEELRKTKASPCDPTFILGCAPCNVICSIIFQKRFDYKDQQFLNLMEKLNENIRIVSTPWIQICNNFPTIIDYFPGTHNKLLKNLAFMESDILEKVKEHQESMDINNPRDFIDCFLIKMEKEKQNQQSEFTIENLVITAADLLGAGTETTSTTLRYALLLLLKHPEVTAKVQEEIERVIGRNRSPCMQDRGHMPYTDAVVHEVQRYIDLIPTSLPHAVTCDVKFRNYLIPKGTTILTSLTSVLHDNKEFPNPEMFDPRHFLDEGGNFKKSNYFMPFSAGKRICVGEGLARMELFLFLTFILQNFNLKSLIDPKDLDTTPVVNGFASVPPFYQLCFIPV

Compound: COC(=O)c1ccc(/C=C/c2ccc3cccc(OC(C)=O)c3n2)cc1
EC50 [1]: 2.08 µM (active)
EC50 (Streptococcus): 8.49 µM (active)

Compound: Cc1c(Cl)ccc2c(C(=O)Nc3cc(C(C)(C)C)on3)cc(-c3ccccn3)nc12
EC50 [2]: 1.95 µM (active)
EC50 [3]: > 60 µM (not active)

Compound: O=C(Nc1ccc2c(c1)OCO2)C1CCN(C(=O)CSc2ncnc3ccccc23)CC1
CC50 [4]: 41.4 µM (active)

Compound: CCCCOc1ccccc1C1C(C(=O)OC)=C(C)N(C)C(C)=C1C(=O)OC
CC50 [4]: > 50 µM (active)

AC50 (Cytochrome P450 2C19; read-out: AC50): 2.82 µM (inconclusive)
Compound: Brc1ccc2ncnc(Nc3cccc4ccccc34)c2c1

AC50 (Cytochrome P450 1A2): 28.2 µM (inconclusive)
AC50 (Cytochrome P450 2C19; read-out: AC50): 15.8 µM (inconclusive)
Compound: COc1ccc(NC(=S)N2CCN(C/C=C/c3ccccc3)CC2)cc1OC

Compound: O=C(c1ccc(Cn2c(=S)[nH]c3ccc(N4CCOCC4)cc3c2=O)cc1)N1CCN(c2ccc(F)cc2)CC1
EC50 [2]: 0.583 µM (active)
EC50 [3]: > 60 µM (not active)

AC50 (Cytochrome P450 2C19; read-out: AC50): 14.1 µM (inconclusive)
Compound: Cc1ccc(-c2ccc(CCC(=O)O)n2CC2CCCO2)cc1 (stereo not drawn)

Compound: SC(COCc1ccccc1)CN1CCN(Cc2ccc3c(c2)OCO3)CC1 (stereo not drawn)
EC50 [2]: 2.1 µM (active)
EC50 [3]: > 60 µM (not active)

EC50 [5]: > 195 µM (not active)
Compound: COc1ccc(C(=O)NC(=S)N2CCNC(=O)C2CC(=O)OC(C)C)cc1 (stereo not drawn)

EC50 [5]: > 195 µM (not active)
Compound: Fc1ccccc1N1CCN(Cc2cc(-c3ccccc3)on2)CC1

Compound: C#C[C@@]1(O)CC[C@@H]2[C@@H]3CCC4=CC(=O)CC[C@@]4(C)[C@H]3CC[C@]21C
AC50 (Cytochrome P450 2C19; read-out: AC50): 0.501 µM (inconclusive)

AC50 (Cytochrome P450 2C19): inconclusive
Compound: COc1cccc(Cn2c(=O)c(-c3ccc(F)cc3)nc3cnc(N4CCOCC4)nc32)c1

AC50 (Cytochrome P450 1A2): 22.4 µM (inconclusive)
Compound: Cc1cccc(-n2c(=O)c3c(n4cnnc24)-c2ccccc2CC32CCCCC2)c1

Compound: CCN(c1ccccc1)S(=O)(=O)c1ccc(Cl)c(NC(=O)CN2CCCCCC2)c1
EC50 [2]: 1.04 µM (active)
EC50 [3]: > 60 µM (not active)

Compound: CCCCc1ccc(NC(S)=NCc2cccc(OC)c2)cc1
EC50 [2]: 3.51 µM (active)
EC50 [3]: > 60 µM (not active)

Compound: C/C(Cn1cnc([N+](=O)[O-])n1)=N\NC(=O)c1cccc(F)c1
EC50 [2]: 1.39 µM (active)
EC50 [3]: > 60 µM (not active)

Compound: CCOC(=O)N1CCN(c2cc(N)c([N+](=O)[O-])cc2F)CC1
CC50 [4]: > 50 µM (active)

Compound: O=[N+]([O-])c1nn(-c2ccc3c(c2)OCCO3)[n+]([O-])c1NC1CCN(Cc2ccccc2)CC1
EC50 [2]: 0.163 µM (active)
EC50 [3]: > 60 µM (not active)

Compound: COC(=O)c1ccc(OC)c(CN2CCCN(Cc3cc(C)ccc3C)S2(=O)=O)c1
EC50 [2]: 1.11 µM (active)
EC50 [3]: > 60 µM (not active)

EC50 [5]: > 195 µM (not active)
Compound: O=C(c1cc(Cl)ccc1Cl)N1CCOCC1

EC50 [5]: > 195 µM (not active)
Compound: c1cc2c(cc1C1CCCN1)OCCCO2 (stereo not drawn)

AC50 (Cytochrome P450 1A2): 17.8 µM (inconclusive)
Compound: Fc1ccc(Cn2c(SCc3ccc(F)c(F)c3)nnc2C(F)(F)F)cc1

Compound: CCCOc1ccc(N2C(=O)CC(SC(=N)N3N=C(c4ccccc4)CC3c3ccccc3)C2=O)cc1 (stereo not drawn)
EC50 [2]: 2.05 µM (active)
EC50 [3]: > 60 µM (not active)

EC50 [5]: 6 µM (active)
Compound: CCOC(=O)c1cnc2ccccc2c1Nc1ccc2c(c1)OCCO2

Compound: CCCC(C)n1nc(O)c2c1NC(=O)CSC2c1ccc(OC)c(OC)c1 (stereo not drawn)
EC50 [5]: > 195 µM (not active)

AC50 (Cytochrome P450 2C19; read-out: AC50): 39.8 µM (inconclusive)
Compound: Cc1ccc(C(=O)NNC(=O)C2CCCN(c3ncccn3)C2)cc1 (stereo not drawn)

AC50 (Cytochrome P450 2C19; read-out: AC50): 3.16 µM (inconclusive)
Compound: O=c1c(-c2ccccc2)nc2cncnc2n1C1CC1

AC50 (Cytochrome P450 1A2): 3.55 µM (inconclusive)
Compound: Cc1ccc2oc(-c3cccc(NC(=S)NC(=O)/C=C/c4ccco4)c3)nc2c1

AC50 (Cytochrome P450 1A2): 2 µM (inconclusive)
Compound: O=c1c(-c2ccc(F)cc2)nc2cnc(Nc3ccccc3)nc2n1Cc1cccs1

AC50 (Cytochrome P450 2C19; read-out: AC50): 25.1 µM (inconclusive)
Compound: COc1cccc(-c2cc(NCc3cccs3)ncn2)c1

Compound: CN/C(=N/CCSCc1nc[nH]c1C)NC#N [CIMETIDINE]
AC50 (Cytochrome P450 1A2): 50.1 µM (inconclusive)

Compound: O=C(c1ccccc1)c1sc(N2CCCCCC2)nc1-c1ccccc1
CC50 [4]: 31.1 µM (active)

EC50 [5]: 69.4 µM (active)
Compound: CC(C)Oc1ccc(C(=O)O)cc1

Compound: COc1cc(/C=N/NC(=O)c2cc(-c3cccc(Br)c3)nc3ccccc23)cc(OC)c1O
CC50 [4]: 36 µM (active)

Compound: Cc1cccn2cc(-c3cccc(S(=O)(=O)N4CC(C)OC(C)C4)c3)nc12 (stereo not drawn)
CC50 [4]: 44.6 µM (active)

Compound: CCc1ccccc1NC(=O)NC1CC2CCC(C1)N2Cc1cccs1 (stereo not drawn)
AC50 (Cytochrome P450 2C19; read-out: AC50): 17.8 µM (inconclusive)

Compound: CCC1CCc2sc(C(=O)NCC(c3ccc(OC)cc3)N3CCCC3)cc2C1 (stereo not drawn)
EC50 [2]: 1.83 µM (active)
EC50 [3]: > 60 µM (not active)

Compound: COc1cc(NC(=O)COC(=O)/C=C/c2c(C)nn(-c3ccc(F)cc3)c2Cl)cc(OC)c1
EC50 [2]: 0.691 µM (active)
EC50 [3]: > 60 µM (not active)

AC50 (Cytochrome P450 2C19; read-out: AC50): 39.8 µM (inconclusive)
Compound: CC1CN(C(=O)COc2ncnc3ccccc23)CC(C)O1 (stereo not drawn)

Compound: Brc1ccc(-c2csc(N/N=C/c3cccnc3)n2)cc1
EC50 [2]: 1.44 µM (active)
EC50 [3]: > 60 µM (not active)

EC50 [5]: > 195 µM (not active)
Compound: Cc1ccc(S(=O)(=O)N(CC(=O)N2CCc3ccccc3C2)c2ccc(Cl)c(Cl)c2)cc1

Compound: Cc1ccc(C(=O)C[n+]2cccc3cc(C)ccc32)cc1
EC50 [2]: 11.2 µM (active)
EC50 [3]: > 60 µM (inconclusive)

Compound: Cc1c(C(=O)NC(=S)NCc2cccnc2)oc2ccccc12
EC50 [2]: 1.93 µM (active)
EC50 [3]: > 60 µM (inconclusive)

AC50 (Cytochrome P450 1A2): 12.6 µM (inconclusive)
Compound: O=C(NC(NC(=S)Nc1cc(Cl)ccc1Cl)C(Cl)(Cl)Cl)c1ccco1 (stereo not drawn)

AC50 (Cytochrome P450 1A2): 3.55 µM (inconclusive)
Compound: O=C(Nc1ccccc1)N1CCSc2cc(Cl)ccc21

EC50 [5]: > 195 µM (not active)
Compound: Cn1cc(Cl)c(-c2nnc(S)n2-c2ccc(F)cc2)n1

Compound: COc1ccc(CN(Cc2cccnc2)S(=O)(=O)c2ccc(-n3cnnn3)c(C)c2)cc1OC
EC50 [2]: 2.19 µM (active)
EC50 [3]: > 30 µM (not active)

Compound: COC(=O)C1(C)C=C2C(=C(C)C(=O)C2C)CN1 (stereo not drawn)
AC50 (Cytochrome P450 1A2): 31.6 µM (inconclusive)

Compound: C[C@@H](C(=O)OC1C[C@H]2CC[C@@H](C1)N2C)c1ccc(Br)cc1 (stereo partly drawn)
AC50 (Cytochrome P450 1A2): 39.8 µM (inconclusive)

EC50 [5]: > 195 µM (not active)
Compound: COC(=O)CCC(=O)NNC(=O)c1cccc(Br)c1

AC50 (Cytochrome P450 2C19; read-out: AC50): 2.51 µM (inconclusive)
Compound: Cc1ccc(C(C(=O)NCc2ccco2)N(C(=O)CNC(=O)c2cccs2)c2ccc(C)cc2)cc1 (stereo not drawn)

Compound: c1ccc(CCNc2nc(-c3ccncc3)cs2)cc1
EC50 [2]: 1.8 µM (active)
EC50 [3]: > 60 µM (not active)

EC50 [5]: > 195 µM (not active)
Compound: CSc1nc2ccc(NS(=O)(=O)c3ccc([N+](=O)[O-])cc3)cc2s1

AC50 (Cytochrome P450 1A2): 14.1 µM (inconclusive)
Compound: Cc1ccc(SCCNC(=O)c2ccc(C)c(S(=O)(=O)Nc3ccccc3C)c2)cc1

EC50 [5]: > 195 µM (not active)
Compound: O=C(CCCOc1ccccc1)Nc1nccs1

AC50 (Cytochrome P450 2C19): inconclusive
Compound: O=C(O)c1cccnc1SCC(=O)N1CCCCCC1

Compound: CN1CCC(OC(=O)c2ccccc2)CC1
EC50 [2]: 0.263 µM (active)
EC50 [3]: 58.6 µM (active)

AC50 (Cytochrome P450 1A2): 28.2 µM (inconclusive)
Compound: C/C(=N\OC(=O)c1ccc(F)cc1)c1nccs1

Compound: CSc1nc(-c2ccc(C)cc2)nc(N)c1C#N
CC50 [4]: 49.6 µM (active)

Compound: CCN(Cc1ccncc1)C(=O)c1cc(COc2ccc(C)c(C)c2)on1
EC50 [2]: 1.07 µM (active)
EC50 [3]: > 60 µM (not active)

Compound: C/C(=N/NC(N)=S)c1ccc(Br)s1
EC50 [2]: 2.07 µM (active)
EC50 [3]: > 60 µM (not active)

Compound: CCN(CC)CCCNC(=O)c1oc2ccc(S(=O)(=O)N3CC(C)CC(C)C3)cc2c1C (stereo not drawn)
EC50 [2]: 0.422 µM (active)
EC50 [3]: > 30 µM (not active)

EC50 [5]: > 195 µM (not active)
Compound: CNC(=O)/C(C#N)=C/c1ccc(-c2ccc(OC)cc2[N+](=O)[O-])o1

Compound: CCOC(=O)N1CCN(C(=O)c2ccc3c(c2)NC(=O)/C(=C/c2ccccc2)S3)CC1
EC50 [1]: 1.48 µM (active)
EC50 (Streptococcus): 4.42 µM (active)

— ChEMBL document CHEMBL1201862, “PubChem BioAssay data set” (2004)
